Where a SMILES comes first, the peptide text is derived from it. The star is where a group is joined. X1 = CN(C)c1ccc2c(-c3cc(NC(=O)C*)ccc3C(=O)[O-])c3ccc(=[N+](C)C)cc-3oc2c1
Key:
PfSUB-1 [1] = target: T1, PfSUB-1 (Plasmodium falciparum, UniProt O61142); test: Multi-well fluorescence assay of PfSUB-1 activity with or without inhibitor; type: biochemical
T1 construct: made in house; host or cells: baculovirus/insect cell system
Protocol: Purified recombinant PfSUB-1 at a range of concentrations in digestion buffer was dispensed into 50 μl aliquots in wells of white 96-well microtitre plates (FluoroNunc, NUNC). […] Plates were sealed and incubated at 37° C. for 18 h before being read on a Perkin Elmer LS-50B Luminescence spectrometer fitted with a LS50B WPR multi-plate reader accessory. Measurements were performed at an excitation wavelength of 552 nm, slit width 4 nm, and an emission wavelength of 580 nm, slit width 2.5 nm. Data collection was managed using Perkin Elmer FL WinLab software.

PfSUB-1 [2] = target: T1, PfSUB-1; details: from reference [4]; cited from earlier work
PfSUB-1 [3] = target: T1, PfSUB-1; test: Protease digestion of fluorogenic substrate with recombinant PfSUB-1, fluorescence readout; type: biochemical
Protocol: (§1) All dye concentrations were determined from the absorption at 528 nm, with ε 52,000 M^−1cm^−1 [5]. Solutions of pepF1-R and its isomer derived from 5-IATR were prepared at ˜4 μM by dilution from stock DMSO solutions into digestion buffer (20 mM Tris, 50 mM NaCl, 12 mM CaCl2, 0.05% NP-40 (w/v), pH 7.6). It was necessary to include NP-40 detergent (Boehringer Mannheim) in all buffers containing the labelled peptides to avoid non-specific adsorption to glass and plasticware. Portions (4 ml) of each solution were treated with an aliquot of pronase (16 μl of 1 mg ml^−1 in the same buffer) and incubated at room temperature for 30 min. Absorbance spectra of these solutions and of the corresponding labelled peptides prior to pronase treatment were recorded (Beckman DU640 spectrophotometer).
(§2) For protease digestion experiments, pepF1-R was diluted directly from DMSO stocks into digestion buffer (20 mM Tris-HCl pH 7.6, 50 mM NaCl, 12 mM CaCl2, ±0.05% w/v Nonidet P40). The DMSO concentration in digestion experiments was maintained below 1% (v/v).
A sample of pepF1-R digested with PfSUB-1 was subjected to RP-HPLC-fractionation (Vydac 4.6 mm×25 cm C18 reversed-phase column, eluted at 1 ml min^−1 with a 4.5-58.5% (v/v) gradient of acetonitrile in 0.1% TFA). In addition to a small peak at 38.5 min corresponding to residual pepF1-R, two large new fluorescent peaks of equal height were evident, with retention times of 29.6 and 34.0 min.
(§3) For these measurements, the compound was diluted 200-fold from a 230 μM stock solution in DMSO into 20 mM Tris-HCl pH 7.6. Identical spectra were obtained upon dilution into 20 mM acetate buffer, pH 5.0, or 20 mM ethanolamine pH 10.0. All buffer solutions contained 0.05% NP-40 detergent (w/v).

pronase = test: Protease digestion of fluorogenic substrate with pronase, fluorescence readout; type: biochemical
Protocol: as §1, §2, §3

PfSUB-1 [4] = target: T1, PfSUB-1; details: recombinant PfSUB-1 and authentic parasite-derived enzyme; reference [4]; cited from earlier work

T1 sequence (O61142 220-690): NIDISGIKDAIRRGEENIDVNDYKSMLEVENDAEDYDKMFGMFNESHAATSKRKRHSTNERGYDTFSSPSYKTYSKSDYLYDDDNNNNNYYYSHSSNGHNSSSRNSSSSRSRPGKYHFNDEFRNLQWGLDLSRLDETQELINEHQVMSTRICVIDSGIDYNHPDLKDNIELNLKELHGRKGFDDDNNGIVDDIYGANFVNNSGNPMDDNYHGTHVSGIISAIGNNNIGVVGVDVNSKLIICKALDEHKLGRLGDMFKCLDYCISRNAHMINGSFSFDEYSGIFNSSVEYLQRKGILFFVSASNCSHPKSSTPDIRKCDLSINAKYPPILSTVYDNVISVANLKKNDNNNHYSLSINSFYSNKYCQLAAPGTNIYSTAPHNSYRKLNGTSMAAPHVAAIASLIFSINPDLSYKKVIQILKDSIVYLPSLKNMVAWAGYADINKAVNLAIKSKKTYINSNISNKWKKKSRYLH

For O=C(O)c1cc[c]([Hg+])cc1.[OH-] [pHMB, p-hydroxymercuribenzoate], the “fluorescence increase of pepF1-R with inhibitor-pre-treated PfSUB-1” value (PfSUB-1 [1]; PfSUB-1 pre-treated with 1 mM inhibitor) is listed as “no fluorescence increase”, the “effect of inhibitor on PfSUB-1-dependent fluorescence increase of pepF1-R” value (PfSUB-1 [1]; multi-well assay, 0.5 μl 100 mM pHMB per 50 μl well, 30 min pre-mix, 37° C. 18 h) is listed as “virtually completely ablated” and the “inhibition of PfSUB-1 (in words)” value (PfSUB-1 [2]) is listed as “potent inhibitor”.

In the case of CC[C@H](C)[C@H](NC(=O)[C@H](CC(=O)O)NC(=O)[C@@H](NC(=O)[C@H](CC(N)=O)NC(=O)[C@H](CC(=O)O)NC(=O)[C@H](C)NC(=O)[C@H](CO)NC(=O)[C@@H](NC(=O)[C@H](CSCC(=O)Nc1ccc(C(=O)[O-])c(-c2c3ccc(=[N+](C)C)cc-3oc3cc(N(C)C)ccc23)c1)NC(C)=O)C(C)C)[C@@H](C)CC)C(=O)N[C@@H](CSCC(=O)Nc1ccc(C(=O)[O-])c(-c2c3ccc(=[N+](C)C)cc-3oc3cc(N(C)C)ccc23)c1)C(=O)O [pepF1-R] (Ac-C(X1)VSADNIDIC(X1)-OH), the “increase in fluorescence on cleavage” value (PfSUB-1 [3]; addition of recombinant PfSUB-1, 20 mM Tris-HCl pH 7.6, 0.05% NP-40, ex 552 nm, em 580 nm) is reported as “greater than 25 fold”, the “cleavage site of substrate (RP-HPLC / mass spectrometry of products)” value (PfSUB-1 [3]; digested with PfSUB-1) is reported as “cleavage at the Asp-Asn bond” and the “fluorescence change on incubation with protease (in words)” value (PfSUB-1 [3]; purified recombinant PfSUB-1, digestion buffer) is reported as “dramatic, time-dependent increase in fluorescence”. For the same molecule, the “increase in fluorescence on cleavage” value (pronase; addition of pronase, 20 mM Tris-HCl pH 7.6, 0.05% NP-40, ex 552 nm, em 580 nm) was “greater than 25 fold”, the “fluorescence change on incubation with protease (in words)” value (pronase; pronase, digestion buffer) was “dramatic, time-dependent increase in fluorescence” and the solubility was at most 50 µM.

For “Ac-LVSADNIDIS—OH: N-acetylated synthetic decapeptide based on the PfSUB-1 autocatalytic cleavage site (Ac-LVSADNIDIS-OH)”, the “cleavage by PfSUB-1 (in words)” value (PfSUB-1 [4]) is given as “cleaved at the Asp-Asn bond”.

From patent US20050118664A1, “Fluorogenic protease substrates” (priority 2002, published 2005)
